pIC50: −log10 of the molar value. Where two headings read alike, the source gives them in different places.

The conditions of data set [1]: stated in discussion, no experiment and reference not given, cited from earlier work.
In data set [2] the test system is CYP1A enzyme. As to conditions: rat liver microsomes; cited from earlier work. For orientation: Liver microsomes are vesicles of endoplasmic reticulum, rich in cytochrome P450 enzymes.
For data set [3], the target named is CYP2D6 (Homo sapiens, UniProt P10635). Kind of data set: CYP2D6 dextromethorphan O-demethylation assay in human liver microsomes. It is filed as in vitro ADME. As to conditions: for IC50: IC50 values CYP2D6 (in μg/ml, in brackets), HLM, μM bound converted to μg/ml; for pIC50: IC50 values CYP2D6, HLM, dextromethorphan 8 μM, tested 1–50 μM; for inhibition of CYP2D6 in HLM (in words): even upto 50 μM concentrations.

Data set [4] relates to CYP1A enzyme. As to conditions: human liver microsomes; cited from earlier work.
The target of data set [5] is CYP2C9 (Homo sapiens, UniProt P11712). In words: CYP2C9 diclofenac 4′-hydroxylation assay in human liver microsomes. As to conditions: for IC50: IC50 values CYP2C9 (in μg/ml, in brackets), HLM, μM bound converted to μg/ml; for pIC50: IC50 values CYP2C9, HLM, diclofenac 50 μM, tested 1–50 μM; for inhibition of CYP2C9 in HLM (in words): even upto 50 μM concentrations.
In data set [6] the target is CYP3A4 (Homo sapiens, UniProt P08684). Kind of data set: CYP3A4 testosterone 6β-hydroxylase assay in human liver microsomes. As to conditions: for IC50: IC50 values CYP3A4 (in μg/ml, in brackets), HLM, μM bound converted to μg/ml; for pIC50: IC50 values CYP3A4, HLM, testosterone 100 μM, tested 1–50 μM; for inhibition of CYP3A4 in HLM (in words): even upto 50 μM concentrations. It is filed as in vitro ADME.
Chain of CYP3A4 (P08684 whole entry): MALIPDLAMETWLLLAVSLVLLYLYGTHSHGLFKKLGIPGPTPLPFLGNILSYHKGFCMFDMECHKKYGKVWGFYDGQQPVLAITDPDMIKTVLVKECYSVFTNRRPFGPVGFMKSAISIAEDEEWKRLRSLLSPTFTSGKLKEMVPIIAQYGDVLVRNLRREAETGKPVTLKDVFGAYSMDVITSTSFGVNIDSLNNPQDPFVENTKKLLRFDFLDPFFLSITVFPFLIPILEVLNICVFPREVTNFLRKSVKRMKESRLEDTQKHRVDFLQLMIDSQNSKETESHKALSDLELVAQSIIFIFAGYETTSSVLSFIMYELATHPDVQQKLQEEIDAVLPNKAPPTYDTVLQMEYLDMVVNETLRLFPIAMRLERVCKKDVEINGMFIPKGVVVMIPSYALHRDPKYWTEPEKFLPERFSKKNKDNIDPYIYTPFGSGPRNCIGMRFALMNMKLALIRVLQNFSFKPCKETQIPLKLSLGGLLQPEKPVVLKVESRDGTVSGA

Chain of CYP2D6 (P10635 whole entry): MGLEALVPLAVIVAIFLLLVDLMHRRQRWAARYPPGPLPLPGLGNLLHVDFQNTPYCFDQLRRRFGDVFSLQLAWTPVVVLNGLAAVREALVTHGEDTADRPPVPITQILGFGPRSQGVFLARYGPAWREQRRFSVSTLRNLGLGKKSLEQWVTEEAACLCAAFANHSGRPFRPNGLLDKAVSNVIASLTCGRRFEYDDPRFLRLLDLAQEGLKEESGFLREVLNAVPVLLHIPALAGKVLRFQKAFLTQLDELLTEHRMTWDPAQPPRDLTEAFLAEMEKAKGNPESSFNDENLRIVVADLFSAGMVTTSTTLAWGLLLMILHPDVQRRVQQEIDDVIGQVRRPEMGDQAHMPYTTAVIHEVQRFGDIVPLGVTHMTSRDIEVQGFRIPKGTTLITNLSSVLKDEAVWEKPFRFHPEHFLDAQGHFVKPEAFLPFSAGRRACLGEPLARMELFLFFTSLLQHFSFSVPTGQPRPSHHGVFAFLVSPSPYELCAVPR
Chain of CYP2C9 (P11712 whole entry): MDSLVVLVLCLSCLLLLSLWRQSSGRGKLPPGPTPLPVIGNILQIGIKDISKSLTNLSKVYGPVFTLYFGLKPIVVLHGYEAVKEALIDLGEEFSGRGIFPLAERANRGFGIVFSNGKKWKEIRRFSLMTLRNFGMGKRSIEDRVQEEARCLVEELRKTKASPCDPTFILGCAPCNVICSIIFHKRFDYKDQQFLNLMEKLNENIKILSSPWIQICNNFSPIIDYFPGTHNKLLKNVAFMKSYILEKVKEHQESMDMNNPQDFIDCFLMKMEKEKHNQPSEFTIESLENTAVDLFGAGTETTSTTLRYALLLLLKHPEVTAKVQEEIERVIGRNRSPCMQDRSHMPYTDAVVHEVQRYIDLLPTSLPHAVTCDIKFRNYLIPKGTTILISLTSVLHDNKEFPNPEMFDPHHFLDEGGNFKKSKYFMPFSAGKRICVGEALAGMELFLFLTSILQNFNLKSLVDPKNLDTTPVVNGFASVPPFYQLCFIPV

What is called IC50 is the concentration needed to halve the response being measured. A lower IC50 goes with greater potency. The term pIC50 denotes the negative decadic logarithm of the IC50, by convention in mol/L. Take `CC1(C)CC[C@]2(C(=O)O)CC[C@]3(C)C(=CC[C@@H]4[C@@]5(C)C[C@@H](O)[C@H](O)C(C)(C)[C@@H]5CC[C@]43C)[C@@H]2[C@@H]1O` [Arjunic acid]: in data set [1], the solubility in methanol entry is “freely soluble”. Further, the solubility in water result in data set [1] (water) is “insoluble”. The “inhibition of CYP1A enzyme (in words)” value in data set [2] is “did not show inhibition”. Moreover, in data set [3], the IC50 is over 51.2 µM, the pIC50 was under 4.30 and the “inhibition of CYP2D6 in HLM (in words)” value was “no significant inhibition”. Moreover, in data set [4], the “inhibition of CYP1A enzyme (in words)” value is given as “did not show inhibition”. In data set [5], the 50% inhibitory concentration (IC50) was over 51.2 µM, the pIC50 is under 4.30 and the “inhibition of CYP2C9 in HLM (in words)” value was “no significant inhibition”. In data set [6], the IC50 is over 51.2 µM, the pIC50 is under 4.30 and the “inhibition of CYP3A4 in HLM (in words)” value is given as “no significant inhibition”.

In the case of `CC1(C)CC[C@]2(C(=O)O)CC[C@]3(C)C(=CC[C@@H]4[C@@]5(C)C[C@@H](O)[C@H](O)[C@@](C)(CO)[C@@H]5CC[C@]43C)[C@@H]2[C@@H]1O` [Arjungenin, arjungenin], in data set [1] (hexane), the solubility in hexane entry was “insoluble”. In data set [1], the solubility in methanol entry is on record as “freely soluble”. Besides, the “inhibition of CYP1A enzyme (in words)” value in data set [2] was “did not show inhibition”. In addition, in data set [3], the 50% inhibitory concentration (IC50) is over 49.5 µM, the negative logarithm of the IC50 (pIC50) was under 4.30 and the “inhibition of CYP2D6 in HLM (in words)” value was “no significant inhibition”. The “inhibition of CYP1A enzyme (in words)” value in data set [4] is recorded as “did not show inhibition”. Also, in data set [5], the half-maximal inhibitory concentration (IC50) was over 49.5 µM, the negative-log IC50 (pIC50) was under 4.30 and the “inhibition of CYP2C9 in HLM (in words)” value was “no significant inhibition”. In data set [6], the concentration for half-maximal inhibition (IC50) was over 49.5 µM, the negative-log IC50 (pIC50) was under 4.30 and the “inhibition of CYP3A4 in HLM (in words)” value is reported as “no significant inhibition”.

The record behind these values is PMC5598323 (Toxicology Reports, 2015).
